From patent US20220305003A1, “METHODS OF TREATING CANCER WITH AN INHIBITOR OF ZNF827” (CHILDREN'S MEDICAL RESEARCH INSTITUTE, priority 2019, published 2022)

Legend:
[1] = tested on: HT1080 and HT1080 6TG cells; experiment: γH2AX and ZNF827 foci by immunofluorescence; settings: topotecan 2 μg/mL 24 hr vs unchallenged
[2] = tested on: ATR-CHK1 pathway; experiment: Western blot of pCHK1, pRPA32 and p21 after ZNF827 knockdown, topotecan and/or ATR inhibitor; format: cell-based
Experimental: Protein was extracted from 10^6 cells per sample by vigorous pipetting and incubation at room temperature for 30 minutes in 100 μL of EDTA-free 4× LDS buffer (106 mM Tris-Cl, 141 mM Tris-Base, 40% Glycerol, 2% LDS, 0.075% SERVA Blue G50) supplemented with 2.5% Benzonase® nuclease 25 U/μL (Novagen, Merck Millipore) and 2% beta-mercaptoethanol (Sigma). Following protein extraction, all samples were denatured at 90° C. for 15 minutes before resolving on NuPAGE® Novex® 4-12% Bis-Tris Mini Gels (Invitrogen) with 1×10^5 cells (10 μL) loaded per lane in NuPAGE® MES SDS running buffer (Invitrogen) at 200 V for 50 minutes. Gels were transferred onto a PVDF membrane (Immobilon-P, Millipore) in transfer buffer (190 mM glycine, 25 mM Tris and 10% methanol) at 100 V for 60 minutes. Membranes were stained with Ponceau-S for 30 minutes, de-stained then blocked for 1 hour at room temperature in 5% skim milk dissolved in PBS with 0.1% Tween-20 (PBST) or TBS with 0.1% Tween-20 (TBST) for phosphorylated proteins. Membranes were cut into appropriate segments based on the size markers, with each segment incubated with antibodies for proteins of interest diluted in 0.5% skim milk in PBST/TBST or 5% BSA overnight at 4° C. (Refer to Table 4 for the list of antibodies). Blots were then washed for 3×5 minutes in PBST/TBST followed by incubation for 1 hour at room temperature with appropriate secondary antibodies (See Table 5) diluted 1:5000 in 0.5% skim milk or 5% BSA in PBST/TBST. Blots were washed for 3×5 minutes in PBST/TBST before incubation with SuperSignal West Pico Chemiluminescent Substrate (ThermoFisher Scientific) for 5 minutes at room temperature. Blots were then exposed to a Luminescent Image Analyser (LAS-4000, Fujifilm).

[3] = molecular target: T1, ZNF827 SUMOylation mutant (Homo sapiens, UniProt Q17R98 SEQ:4-1079); experiment: EMSA; positive control; 0.8 mM ZnCl2, 100 mM KCl, poly(dI:dC), on ice; settings: tags: HaloTag (pHTN), expressed in HEK 293T, tag removed by HaloTEV cleavage; label: 32P (gamma)
T1 chain: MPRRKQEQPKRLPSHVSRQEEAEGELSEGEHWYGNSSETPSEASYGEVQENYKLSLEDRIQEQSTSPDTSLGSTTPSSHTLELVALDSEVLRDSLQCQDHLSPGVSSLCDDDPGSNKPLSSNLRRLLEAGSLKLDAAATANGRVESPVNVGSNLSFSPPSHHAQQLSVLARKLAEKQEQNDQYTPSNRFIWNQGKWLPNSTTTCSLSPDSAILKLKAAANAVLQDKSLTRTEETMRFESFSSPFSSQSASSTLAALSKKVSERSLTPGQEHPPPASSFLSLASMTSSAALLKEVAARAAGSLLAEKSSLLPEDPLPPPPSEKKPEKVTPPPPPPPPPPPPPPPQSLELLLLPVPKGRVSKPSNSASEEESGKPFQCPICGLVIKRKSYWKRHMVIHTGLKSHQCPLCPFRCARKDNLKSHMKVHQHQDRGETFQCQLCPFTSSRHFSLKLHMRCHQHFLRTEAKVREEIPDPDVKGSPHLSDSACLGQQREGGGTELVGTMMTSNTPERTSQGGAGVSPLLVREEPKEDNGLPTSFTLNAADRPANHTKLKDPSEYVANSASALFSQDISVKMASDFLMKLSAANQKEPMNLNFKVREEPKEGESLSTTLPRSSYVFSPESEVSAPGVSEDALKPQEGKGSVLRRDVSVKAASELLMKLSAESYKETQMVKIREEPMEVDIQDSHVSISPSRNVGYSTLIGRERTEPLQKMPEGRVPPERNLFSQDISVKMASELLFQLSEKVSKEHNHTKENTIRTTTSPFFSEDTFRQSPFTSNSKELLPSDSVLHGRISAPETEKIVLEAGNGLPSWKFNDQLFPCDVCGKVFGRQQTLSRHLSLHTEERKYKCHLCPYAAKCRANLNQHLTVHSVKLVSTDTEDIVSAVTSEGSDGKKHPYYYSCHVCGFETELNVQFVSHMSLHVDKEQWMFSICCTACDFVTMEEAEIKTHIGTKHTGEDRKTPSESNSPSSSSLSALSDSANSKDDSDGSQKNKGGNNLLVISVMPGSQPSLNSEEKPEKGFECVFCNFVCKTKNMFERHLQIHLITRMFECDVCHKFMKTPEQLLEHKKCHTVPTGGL
Experimental: Purified proteins were quantified using a BCA assay using the Pierce™ BCA Protein Assay Kit according to the manufacturer's instructions. Equal amounts of purified proteins were incubated in binding buffer (20 mM HEPES-KOH, pH7.9, 100 mM KCl, 0.8 mM ZnCl₂, 0.2 mM EDTA, 5% glycerol, 0.5 mM DTT and 0.5 mM PMSF) with 6.25 μg/mL poly (dI:dC) and 50 ng/μL BSA on ice for 20 minutes. ˜0.12 nM (˜2.5 fmol) γ-³²P labelled DNA oligonucleotide (see Table 3) probes were added to samples and incubated on ice for another 30 minutes. Binding reactions were loaded onto an 8% native acrylamide/bisacrylamide (19:1, Biorad) gel pre-run at 100V in 0.5× TB buffer (89 mM Tris, 89 mM boric acid) for 20 minutes. Gels were electrophoresed at 150 V for 150 minutes at 4° C., dried at 65° C. for 45 minutes, and then exposed to a Phosphor screen overnight. Gel images were obtained by scanning the screens with a Typhoon FLA9500 Imager (GE Life Sciences).
To identify which zinc fingers are required for DNA binding activity, zinc finger mutants with either one or both zinc finger clusters deleted were also generated and purified (FIG. 1). Purified proteins were validated by HaloTag® TMR ligand detection and western blot analysis. Mass spectrometry (MS) analysis also confirmed the specificity of the HaloTag protein purification method. […]

## CC[C@@]1(O)C(=O)OCc2c1cc1n(c2=O)Cc2cc3c(CN(C)C)c(O)ccc3nc2-1 [topotecan]
[1]
  ZNF827 foci induction: striking induction of ZNF827
  γH2AX foci induction: efficiently induced γH2AX foci

## siZNF827: Stealth RNAi siRNA ZNF827HSS135819 duplex oligoribonucleotides (Invitrogen), SEQ ID NO: 12 and 13 (chain 1 GGGCAGUCUUCUGGCUGAGAAAUCA; chain 2 UGAUUUCUCAGCCAGAAGACUGCCC; listed as RNA, further chemistry not given here)
[2]; ZNF827 knockdown versus ATR inhibitors VE-821 and AZ20
  phosphorylation of CHK1 S345 and RPA32 S33 compared with ATR inhibitors: greater reduction in phosphorylation of CHK1 S345 and RPA32 S33 than ATR inhibitors
[2]; ZNF827 knockdown, topotecan treatment
  phosphorylation of CHK1 S345 and RPA S33: substantially suppressed
[2]; unchallenged ZNF827-depleted cells, compared with topotecan-treated cells
  p21 level: upregulated

## TTAGGGTTAGGGTTAGGG (ssDNA) [ss telomeric G rich oligo]
[3]
  binding result: binds
